Results published in ChEMBL document CHEMBL3352227, “Synthesis, antimycobacterial and antibacterial evaluation of l-[(1R, 2S)-2-fluorocyclopropyl]fluoroquinolone derivatives containing an oxime functional moiety” (Eur J Med Chem, 2014).
In brackets after ≈: the same amount, converted by molar mass.

Columns and labels:
Assay type in all cases: functional
Staphylococcus aureus [1] = assay: Antibacterial activity against methicillin-resistant Staphylococcus aureus 12-5 after 18 to 24 hrs by standard twofold serial dilution method
Escherichia coli [2] = assay: Antibacterial activity against extended-spectrum beta-lactamase producing Escherichia coli 12-2 after 18 to 24 hrs by standard twofold serial dilution method
Staphylococcus aureus [3] = assay: Antibacterial activity against methicillin-sensitive Staphylococcus aureus 12-5 after 18 to 24 hrs by standard twofold serial dilution method
Klebsiella pneumoniae [4] = assay: Antibacterial activity against extended-spectrum beta-lactamase producin Klebsiella pneumoniae 12-4 after 18 to 24 hrs by standard twofold serial dilution method
Streptococcus pneumoniae [5] = assay: Antibacterial activity against Streptococcus pneumoniae 12-18 after 18 to 24 hrs by standard twofold serial dilution method
Pseudomonas aeruginosa [6] = assay: Antibacterial activity against Pseudomonas aeruginosa 12-14 after 18 to 24 hrs by standard twofold serial dilution method
Escherichia coli [7] = assay: Antibacterial activity against extended-spectrum beta-lactamase producing Escherichia coli 12-14 after 18 to 24 hrs by standard twofold serial dilution method
Klebsiella pneumoniae [8] = assay: Antibacterial activity against Klebsiella pneumoniae 12-4 after 18 to 24 hrs by standard twofold serial dilution method
Escherichia coli [9] = assay: Antibacterial activity against Escherichia coli ATCC 25922 after 18 to 24 hrs by standard twofold serial dilution method
[10] = tested on: Staphylococcus epidermidis; assay: Antibacterial activity against methicillin-sensitive Staphylococcus epidermidis 12-1 after 18 to 24 hrs by standard twofold serial dilution method
Escherichia coli [11] = assay: Antibacterial activity against Escherichia coli 12-1 after 18 to 24 hrs by standard twofold serial dilution method
Escherichia coli [12] = assay: Antibacterial activity against extended-spectrum beta-lactamase producing Escherichia coli 12-3 after 18 to 24 hrs by standard twofold serial dilution method
Streptococcus pneumoniae [13] = assay: Antibacterial activity against Streptococcus pneumoniae ATCC 49619 after 18 to 24 hrs by standard twofold serial dilution method
Staphylococcus aureus [14] = assay: Antibacterial activity against Staphylococcus aureus ATCC 25923 after 18 to 24 hrs by standard twofold serial dilution method
Pseudomonas aeruginosa [15] = assay: Antibacterial activity against Pseudomonas aeruginosa 12-12 after 18 to 24 hrs by standard twofold serial dilution method
Staphylococcus aureus [16] = assay: Antibacterial activity against methicillin-sensitive Staphylococcus aureus 12-4 after 18 to 24 hrs by standard twofold serial dilution method
[17] = tested on: Staphylococcus epidermidis; assay: Antibacterial activity against methicillin-sensitive Staphylococcus epidermidis 12-8 after 18 to 24 hrs by standard twofold serial dilution method
[18] = tested on: Staphylococcus epidermidis; assay: Antibacterial activity against methicillin-sensitive Staphylococcus epidermidis 12-6 after 18 to 24 hrs by standard twofold serial dilution method
Klebsiella pneumoniae [19] = assay: Antibacterial activity against Klebsiella pneumoniae 12-1 after 18 to 24 hrs by standard twofold serial dilution method
Klebsiella pneumoniae [20] = assay: Antibacterial activity against extended-spectrum beta-lactamase producin Klebsiella pneumoniae 12-3 after 18 to 24 hrs by standard twofold serial dilution method
[21] = tested on: Mycobacterium tuberculosis; assay: Antimycobacterial activity against Mycobacterium tuberculosis H37Rv ATCC 27294 by MABA method
Klebsiella pneumoniae [22] = assay: Antibacterial activity against extended-spectrum beta-lactamase producin Klebsiella pneumoniae 12-7 after 18 to 24 hrs by standard twofold serial dilution method
Escherichia coli [23] = assay: Antibacterial activity against extended-spectrum beta-lactamase producing Escherichia coli 12-15 after 18 to 24 hrs by standard twofold serial dilution method
[24] = tested on: Staphylococcus epidermidis; assay: Antibacterial activity against methicillin-resistant Staphylococcus epidermidis 12-6 after 18 to 24 hrs by standard twofold serial dilution method
[25] = tested on: Staphylococcus epidermidis; assay: Antibacterial activity against methicillin-sensitive Staphylococcus epidermidis 12-3 after 18 to 24 hrs by standard twofold serial dilution method
Klebsiella pneumoniae [26] = assay: Antibacterial activity against extended-spectrum beta-lactamase producin Klebsiella pneumoniae 12-14 after 18 to 24 hrs by standard twofold serial dilution method
Staphylococcus aureus [27] = assay: Antibacterial activity against methicillin-sensitive Staphylococcus aureus 12-1 after 18 to 24 hrs by standard twofold serial dilution method
[28] = tested on: Staphylococcus epidermidis; assay: Antibacterial activity against methicillin-resistant Staphylococcus epidermidis 12-1 after 18 to 24 hrs by standard twofold serial dilution method
Staphylococcus aureus [29] = assay: Antibacterial activity against methicillin-sensitive Staphylococcus aureus 12-2 after 18 to 24 hrs by standard twofold serial dilution method
Staphylococcus aureus [30] = assay: Antibacterial activity against methicillin-resistant Staphylococcus aureus 12-4 after 18 to 24 hrs by standard twofold serial dilution method
Staphylococcus aureus [31] = assay: Antibacterial activity against methicillin-resistant Staphylococcus aureus 12-2 after 18 to 24 hrs by standard twofold serial dilution method
Klebsiella pneumoniae [32] = assay: Antibacterial activity against Klebsiella pneumoniae 12-2 after 18 to 24 hrs by standard twofold serial dilution method

Row | Compound | MIC (Staphylococcus aureus [1]) [µg/mL] | MIC (Escherichia coli [2]) [µg/mL] | MIC (Staphylococcus aureus [3]) [µg/mL] | MIC (Klebsiella pneumoniae [4]) [µg/mL] | MIC (Streptococcus pneumoniae [5]) [µg/mL] | MIC (Pseudomonas aeruginosa [6]) [µg/mL] | MIC (Escherichia coli [7]) [µg/mL] | MIC (Klebsiella pneumoniae [8]) [µg/mL] | MIC (Escherichia coli [9]) [µg/mL] | MIC [10] [µg/mL] | MIC (Escherichia coli [11]) [µg/mL] | MIC (Escherichia coli [12]) [µg/mL] | MIC (Streptococcus pneumoniae [13]) [µg/mL] | MIC (Staphylococcus aureus [14]) [µg/mL] | MIC (Pseudomonas aeruginosa [15]) [µg/mL] | MIC (Staphylococcus aureus [16]) [µg/mL] | MIC [17] [µg/mL] | MIC [18] [µg/mL] | MIC (Klebsiella pneumoniae [19]) [µg/mL] | MIC (Klebsiella pneumoniae [20]) [µg/mL] | further results
1 | CCO/N=C1/CN(c2cc3c(cc2F)c(=O)c(C(=O)O)cn3[C@@H]2C[C@@H]2F)CC1CN (stereo not given in full) | 8 (≈ 19 µM) | 32 (≈ 76.1 µM) | 0.06 (≈ 0.143 µM) | 8 (≈ 19 µM) | 0.25 (≈ 0.595 µM) | 1 (≈ 2.38 µM) | 16 (≈ 38.1 µM) | 0.25 (≈ 0.595 µM) | 0.06 (≈ 0.143 µM) | 0.06 (≈ 0.143 µM) | 0.5 (≈ 1.19 µM) | 16 (≈ 38.1 µM) | 0.03 (≈ 0.0714 µM) | < 0.008 | 0.25 (≈ 0.595 µM) | 0.06 (≈ 0.143 µM) | 0.5 (≈ 1.19 µM) | 0.06 (≈ 0.143 µM) | 0.25 (≈ 0.595 µM) | 16 (≈ 38.1 µM) | MIC [21]: 0.25 µg/mL (≈ 0.595 µM); MIC (Klebsiella pneumoniae [22]): 1 µg/mL (≈ 2.38 µM); MIC (Escherichia coli [23]): 128 µg/mL (≈ 304 µM); MIC [24]: 1 µg/mL (≈ 2.38 µM); MIC [25]: 0.25 µg/mL (≈ 0.595 µM); MIC (Klebsiella pneumoniae [26]): 32 µg/mL (≈ 76.1 µM); MIC (Staphylococcus aureus [27]): 0.06 µg/mL (≈ 0.143 µM); MIC [28]: 1 µg/mL (≈ 2.38 µM); MIC (Staphylococcus aureus [29]): 0.015 µg/mL (≈ 0.0357 µM); MIC (Staphylococcus aureus [30]): 8 µg/mL (≈ 19 µM); MIC (Staphylococcus aureus [31]): 8 µg/mL (≈ 19 µM); MIC (Klebsiella pneumoniae [32]): 0.25 µg/mL (≈ 0.595 µM)
2 | CCO/N=C1/CN(c2c(F)cc3c(=O)c(C(=O)O)cn([C@@H]4C[C@@H]4F)c3c2OC)CC1CN (stereo not given in full) | 64 (≈ 142 µM) | > 128 | 0.25 (≈ 0.555 µM) | 128 (≈ 284 µM) | 4 (≈ 8.88 µM) | 128 (≈ 284 µM) | > 128 | 4 (≈ 8.88 µM) | 4 (≈ 8.88 µM) | 0.25 (≈ 0.555 µM) | 16 (≈ 35.5 µM) | > 128 | 4 (≈ 8.88 µM) | 0.015 (≈ 0.0333 µM) | 8 (≈ 17.8 µM) | 0.25 (≈ 0.555 µM) | 16 (≈ 35.5 µM) | 0.25 (≈ 0.555 µM) | 4 (≈ 8.88 µM) | > 128 | MIC [21]: 32 µg/mL (≈ 71 µM); MIC (Klebsiella pneumoniae [22]): 32 µg/mL (≈ 71 µM); MIC (Escherichia coli [23]): > 128 µg/mL; MIC [24]: > 128 µg/mL; MIC [25]: 2 µg/mL (≈ 4.44 µM); MIC (Klebsiella pneumoniae [26]): > 128 µg/mL; MIC (Staphylococcus aureus [27]): 0.25 µg/mL (≈ 0.555 µM); MIC [28]: 32 µg/mL (≈ 71 µM); MIC (Staphylococcus aureus [29]): 0.25 µg/mL (≈ 0.555 µM); MIC (Staphylococcus aureus [30]): 128 µg/mL (≈ 284 µM); MIC (Staphylococcus aureus [31]): 128 µg/mL (≈ 284 µM); MIC (Klebsiella pneumoniae [32]): 4 µg/mL (≈ 8.88 µM)
3 | CCO/N=C1/CN(c2cc3c(cc2F)c(=O)c(C(=O)O)cn3[C@@H]2C[C@@H]2F)[C@H]1CN | 16 (≈ 39.4 µM) | 32 (≈ 78.7 µM) | 0.125 (≈ 0.308 µM) | 8 (≈ 19.7 µM) | 1 (≈ 2.46 µM) | 32 (≈ 78.7 µM) | 16 (≈ 39.4 µM) | 0.06 (≈ 0.148 µM) | 0.03 (≈ 0.0738 µM) | 0.125 (≈ 0.308 µM) | 0.125 (≈ 0.308 µM) | 8 (≈ 19.7 µM) | 0.06 (≈ 0.148 µM) | 0.03 (≈ 0.0738 µM) | 0.5 (≈ 1.23 µM) | 0.06 (≈ 0.148 µM) | 2 (≈ 4.92 µM) | 0.125 (≈ 0.308 µM) | 0.06 (≈ 0.148 µM) | 32 (≈ 78.7 µM) | MIC [21]: 2 µg/mL (≈ 4.92 µM); MIC (Klebsiella pneumoniae [22]): 0.5 µg/mL (≈ 1.23 µM); MIC (Escherichia coli [23]): 128 µg/mL (≈ 315 µM); MIC [24]: 8 µg/mL (≈ 19.7 µM); MIC [25]: 0.5 µg/mL (≈ 1.23 µM); MIC (Klebsiella pneumoniae [26]): 32 µg/mL (≈ 78.7 µM); MIC (Staphylococcus aureus [27]): 0.125 µg/mL (≈ 0.308 µM); MIC [28]: 4 µg/mL (≈ 9.84 µM); MIC (Staphylococcus aureus [29]): 0.06 µg/mL (≈ 0.148 µM); MIC (Staphylococcus aureus [30]): 32 µg/mL (≈ 78.7 µM); MIC (Staphylococcus aureus [31]): 16 µg/mL (≈ 39.4 µM); MIC (Klebsiella pneumoniae [32]): 0.06 µg/mL (≈ 0.148 µM)
4 | CCO/N=C1/CN(c2cc3c(cc2F)c(=O)c(C(=O)O)cn3[C@@H]2C[C@@H]2F)[C@@H]1CN | 32 (≈ 78.7 µM) | 128 (≈ 315 µM) | 0.03 (≈ 0.0738 µM) | 16 (≈ 39.4 µM) | 1 (≈ 2.46 µM) | 32 (≈ 78.7 µM) | 64 (≈ 157 µM) | 0.25 (≈ 0.615 µM) | 0.06 (≈ 0.148 µM) | 0.06 (≈ 0.148 µM) | 0.25 (≈ 0.615 µM) | 16 (≈ 39.4 µM) | 0.25 (≈ 0.615 µM) | < 0.008 | 1 (≈ 2.46 µM) | 0.03 (≈ 0.0738 µM) | 4 (≈ 9.84 µM) | 0.06 (≈ 0.148 µM) | 0.25 (≈ 0.615 µM) | 64 (≈ 157 µM) | MIC [21]: 2 µg/mL (≈ 4.92 µM); MIC (Klebsiella pneumoniae [22]): 1 µg/mL (≈ 2.46 µM); MIC (Escherichia coli [23]): > 128 µg/mL; MIC [24]: 64 µg/mL (≈ 157 µM); MIC [25]: 0.125 µg/mL (≈ 0.308 µM); MIC (Klebsiella pneumoniae [26]): 64 µg/mL (≈ 157 µM); MIC (Staphylococcus aureus [27]): 0.06 µg/mL (≈ 0.148 µM); MIC [28]: 8 µg/mL (≈ 19.7 µM); MIC (Staphylococcus aureus [29]): 0.06 µg/mL (≈ 0.148 µM); MIC (Staphylococcus aureus [30]): 32 µg/mL (≈ 78.7 µM); MIC (Staphylococcus aureus [31]): 32 µg/mL (≈ 78.7 µM); MIC (Klebsiella pneumoniae [32]): 0.25 µg/mL (≈ 0.615 µM)
5 | CCO/N=C1/CN(c2nc3c(cc2F)c(=O)c(C(=O)O)cn3[C@@H]2C[C@@H]2F)[C@@H]1CN | > 128 | > 128 | 0.5 (≈ 1.23 µM) | 32 (≈ 78.6 µM) | 8 (≈ 19.6 µM) | 128 (≈ 314 µM) | > 128 | 1 (≈ 2.45 µM) | 0.5 (≈ 1.23 µM) | 0.5 (≈ 1.23 µM) | 2 (≈ 4.91 µM) | 32 (≈ 78.6 µM) | 2 (≈ 4.91 µM) | 0.25 (≈ 0.614 µM) | 4 (≈ 9.82 µM) | 0.25 (≈ 0.614 µM) | 32 (≈ 78.6 µM) | 0.5 (≈ 1.23 µM) | 1 (≈ 2.45 µM) | > 128 | MIC [21]: 4 µg/mL (≈ 9.82 µM); MIC (Klebsiella pneumoniae [22]): 8 µg/mL (≈ 19.6 µM); MIC (Escherichia coli [23]): > 128 µg/mL; MIC [24]: 32 µg/mL (≈ 78.6 µM); MIC [25]: 2 µg/mL (≈ 4.91 µM); MIC (Klebsiella pneumoniae [26]): > 128 µg/mL; MIC (Staphylococcus aureus [27]): 0.5 µg/mL (≈ 1.23 µM); MIC [28]: 64 µg/mL (≈ 157 µM); MIC (Staphylococcus aureus [29]): 0.5 µg/mL (≈ 1.23 µM); MIC (Staphylococcus aureus [30]): > 128 µg/mL; MIC (Staphylococcus aureus [31]): > 128 µg/mL; MIC (Klebsiella pneumoniae [32]): 1 µg/mL (≈ 2.45 µM)
